Experimental data: a compilation of properties of binary mixtures (doi:10.1007/s10953-014-0273-1)

Assay: xn = mol fraction of the nth substance listed
Conditions: 101 kPa

CCCC[n+]1ccn(C)c1.F[B-](F)(F)F + CC(=O)N(C)C
viscosity [mPa·s]
Conditions | x2 = 0 | x2 = 0.1006 | x2 = 0.2004 | x2 = 0.3005 | x2 = 0.4011 | x2 = 0.5002 | x2 = 0.5998 | x2 = 0.6996 | x2 = 0.8002 | x2 = 0.8999
303.15 K | 84.2 | 59 | 41.6 | 29 | 19.38 | 12.88 | 8.32 | 4.99 | 2.95 | 1.679
313.15 K | 53 | 38.5 | 28 | 20.16 | 14 | – | 6.32 | 4 | 2.44 | –
323.15 K | 35.5 | 26.6 | 19.88 | 14.62 | 10.55 | 7.37 | – | – | 2.069 | –
333.15 K | 25.01 | 19.27 | 14.76 | 11.08 | 8.15 | 5.87 | 4.09 | 2.77 | – | 1.1

CC(=O)N(C)C + CCCC[n+]1ccn(C)c1.F[B-](F)(F)F
x1 = 1
Conditions | viscosity [mPa·s]
303.15 K | 0.882
323.15 K | 0.69
333.15 K | 0.618

CO + CCCC[n+]1ccn(C)c1.F[B-](F)(F)F
x1 = 1
Conditions | viscosity [mPa·s]
313.15 K | 0.455
323.15 K | 0.401

CCCC[n+]1ccn(C)c1.F[B-](F)(F)F + CC#N
viscosity [mPa·s]
Conditions | x2 = 0 | x2 = 0.1001 | x2 = 0.2034 | x2 = 0.3011 | x2 = 0.4013 | x2 = 0.5 | x2 = 0.6018 | x2 = 0.7 | x2 = 0.7997 | x2 = 0.9001
303.15 K | – | 55.2 | – | 23.74 | 14.97 | 9.25 | 5.34 | 3 | 1.611 | 0.792
313.15 K | 53 | 36.5 | 24.4 | 16.9 | – | 7.14 | – | 2.522 | 1.389 | 0.707
323.15 K | – | 25.36 | 17.76 | – | 8.57 | – | 3.58 | 2.155 | – | 0.636
333.15 K | 25.01 | 18.43 | 13.23 | 9.83 | 6.83 | 4.69 | 3.03 | 1.877 | 1.103 | 0.579

CCCC[n+]1ccn(C)c1.F[B-](F)(F)F + CN1CCCC1=O
viscosity [mPa·s]
Conditions | x2 = 0 | x2 = 0.0999 | x2 = 0.2001 | x2 = 0.3028 | x2 = 0.4 | x2 = 0.4999 | x2 = 0.5998 | x2 = 0.7001 | x2 = 0.8003 | x2 = 0.9001
303.15 K | – | – | – | – | – | 17.17 | 11.43 | 7.37 | 4.64 | 2.9
313.15 K | 53 | 41 | 31.6 | 23.77 | 17.42 | 12.5 | 8.61 | 5.75 | 3.76 | 2.409
323.15 K | – | 28.2 | 22.15 | 17.13 | 13 | 9.47 | 6.73 | – | 3.13 | 1.991
333.15 K | 25.01 | 20.3 | 16.25 | 12.83 | 9.93 | 7.46 | 5.37 | 3.79 | 2.66 | 1.722

CN1CCCC1=O + CCCC[n+]1ccn(C)c1.F[B-](F)(F)F
Conditions | viscosity [mPa·s]
303.15 K, x1 = 1 | 1.551

CCCC[n+]1ccn(C)c1.F[B-](F)(F)F + CO
viscosity [mPa·s]
Conditions | x2 = 0 | x2 = 0.1003 | x2 = 0.2047 | x2 = 0.2997 | x2 = 0.3996 | x2 = 0.504 | x2 = 0.6004 | x2 = 0.6992 | x2 = 0.7997 | x2 = 0.9001
303.15 K | 84.2 | 54.2 | 34.6 | 23.54 | 15.02 | 9.42 | – | 3.67 | 2.118 | 1.141
313.15 K | – | – | – | 16.93 | 11.32 | 7.4 | 4.86 | 3.03 | – | –
323.15 K | 35.5 | – | 17.81 | 12.9 | 8.94 | 6.02 | – | 2.537 | 1.527 | 0.895
333.15 K | 25.01 | 18.68 | 13.6 | 10.13 | – | 5.03 | 3.42 | 2.195 | 1.337 | 0.765

CC#N + CCCC[n+]1ccn(C)c1.F[B-](F)(F)F
x1 = 1
Conditions | viscosity [mPa·s]
303.15 K | 0.329
313.15 K | 0.3
323.15 K | 0.276
